Laboratory results as given in patent US9676780B2, “Piperazine-substituted [1,2,4]triazolo[1,5-C]quinazolin-5-amine compounds with A2A antagonist properties” (MERCK SHARP & DOHME CORP., priority 2012, dated 2017).

Biological target: T1, human A2a receptor (Homo sapiens, UniProt P29274)
T1 construct: purchased Perkin-Elmer RBHA2AM400UA; host or cells: HEK293
Assay: A2a receptor competition binding assay (Scintillation Proximity, tritiated radioligand)
Conditions: A2a EC50, membranes from HEK293 cells expressing the human A2a receptor; 0.5 nM tritiated ligand; SPA beads; one hour at room temperature
Procedure: Binding affinities of compounds of the invention for the human A2a receptor were determined in a competition binding assay using Scintillation Proximity technology. […] The beads were then allowed to settle to the bottom of the wells for 1 hr, after which the membrane-associated radioactivity was determined by scintillation counting in a TopCount microplate reader. Ki values were determined using the Cheng-Prusoff equation.
• HEK293 cells expressing the human, rat, dog or monkey adenosine 2a receptor (Purchased from Perkin-Elmer # RBHA2AM400UA). • The Tritiated compound was prepared in-house by MRL Radiochemistry according to published methods. • Wheatgerm agglutinin-coated yttrium silicate SPA beads (GE Healthcare #RPNQ0023). […] This is a 2.5× solution. The final concentration in the assay is 0.5 nM. Calculate the concentration by counting two 5 ul aliquots. Membrane Preparation • Use 0.25 ug of membrane/well. Dilute membranes to 9.7 ug/ml in assay buffer. Treat with 20 ug/ml adenosine deaminase (ADA) for 15 minutes at room temperature to degrade endogenous adenosine. Membrane-Bead Mixture • Use 100 ug/well wheatgerm agglutinin-coated yttrium silicate SPA beads. • Mix ADA-treated membranes and SPA beads together for 30 min prior to assay. […] Incubate for one hour at room temperature with agitation. • Include total binding (assay buffer+1% DMSO) and non-specific binding (CGS15943, 1 uM) wells. Counting • Allow the beads to settle for one hour. • Count in TopCount. Calculations • A curve fitting program (i.e., Prism, Activity Base, Chemcart) is used to determine the EC50.
The Ki value is calculated using the Cheng-Prusoff equation. Ki=EC50/(1+(radioligand concentration/Kd))

T1 sequence (P29274 whole entry): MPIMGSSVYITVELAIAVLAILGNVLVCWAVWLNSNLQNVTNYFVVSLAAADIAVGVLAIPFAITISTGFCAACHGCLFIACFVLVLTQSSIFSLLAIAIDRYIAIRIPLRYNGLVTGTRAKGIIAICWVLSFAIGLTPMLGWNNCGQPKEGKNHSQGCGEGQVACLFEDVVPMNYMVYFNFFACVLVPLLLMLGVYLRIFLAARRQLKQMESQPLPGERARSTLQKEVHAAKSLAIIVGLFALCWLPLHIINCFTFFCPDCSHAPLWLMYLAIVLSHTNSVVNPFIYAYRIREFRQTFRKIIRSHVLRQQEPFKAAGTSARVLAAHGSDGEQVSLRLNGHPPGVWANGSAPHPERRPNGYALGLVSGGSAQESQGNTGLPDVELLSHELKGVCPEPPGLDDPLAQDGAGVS

SMILES | EC50
COc1cccc2c1nc(N)n1nc(CN3C4CCC3C3CCC4N3C(=O)c3ccc(C(F)(F)F)cc3)nc21 [Ex-203] | 0.0085 µM
COc1cccc2c1nc(N)n1nc(CN3C4CCC3C3CCC4N3C(=O)c3ccc(F)cc3)nc21 [Ex-204] | 0.0115 µM
COc1cccc2c1nc(N)n1nc(CN3C4CCC3C3CCC4N3c3ccc(C(F)(F)F)cn3)nc21 [Ex-205] | 0.0041 µM
COc1cc(F)cc2c1nc(N)n1nc(CN3C4CCC3CN(Cc3ccccc3)C4)nc21 [Ex-206] | 0.0309 µM
COc1cccc2c1nc(N)n1nc(CN3C4CCC3C3CCC4N3)nc21 [Ex-208] | 0.143 µM

Same assay, conditions: membranes from HEK293 cells expressing the human A2a receptor; 0.5 nM tritiated ligand; SPA beads; one hour at room temperature; read-out: A2a EC50

SMILES | EC50
COc1ccccc1N1CCN(Cc2nc3c4cccc(OC)c4nc(N)n3n2)CC1(C)C [Ex-187] | 0.0058 µM
CCOC(=O)N1CCN(Cc2nc3c4cccc(OC)c4nc(N)n3n2)C2(CC2)C1 [Ex-188] | 0.0126 µM
COCCOc1ccc(N2CCN(Cc3nc4c5cccc(OC)c5nc(N)n4n3)C3(CC3)C2)cc1 [Ex-189] | 0.0031 µM
COCCOc1cccc(N2CCN(Cc3nc4c5cccc(OC)c5nc(N)n4n3)C3(CC3)C2)c1 [Ex-190] | 0.0067 µM
COc1cccc2c1nc(N)n1nc(CN3CCN(c4ccc(F)cc4)CC34CC4)nc21 [Ex-191] | 0.0082 µM
COc1cccc2c1nc(N)n1nc(CN3CCN(CCF)CC34CC4)nc21 [Ex-192] | 0.153 µM
COCCN1CCN(Cc2nc3c4cccc(OC)c4nc(N)n3n2)C2(CC2)C1 [Ex-193] | 0.128 µM
COc1cccc2c1nc(N)n1nc(CN3CCN(S(=O)(=O)C4CC4)CC34CC4)nc21 [Ex-194] | 0.0248 µM
COc1cccc2c1nc(N)n1nc(CN3CCN(c4ccc(F)cc4)C4(CC4)C3)nc21 [Ex-195] | 0.0416 µM
COc1cccc2c1nc(N)n1nc(CN3CCN(CCC(F)(F)F)CC34CC4)nc21 [Ex-196] | 0.0957 µM
COc1cccc2c1nc(N)n1nc(CN3CCN(c4ccc(C(F)(F)F)cn4)CC3(C)C)nc21 [Ex-199] | 0.0108 µM
COc1cccc2c1nc(N)n1nc(CN3CCN(C(=O)c4ccc(C(F)(F)F)cc4)CC3(C)C)nc21 [Ex-200] | 0.0156 µM
COc1cccc2c1nc(N)n1nc(CN3[C@H](C)CN(C(=O)c4ccc(F)cc4)C[C@@H]3C)nc21 [Ex-201] | 0.0502 µM
COc1cccc2c1nc(N)n1nc(CN3CCN(C(=O)c4ccc(F)cc4)CC3(C)C)nc21 [Ex-202] | 0.0291 µM
COc1cc(F)cc2c1nc(N)n1nc(CN3CC4CCC(C3)N4Cc3ccccc3)nc21 [Ex-207] | 0.145 µM
COc1ccc(CN2CCN(Cc3nc4c5cccc(OC)c5nc(N)n4n3)CC2=O)cc1 [Ex-209] | 0.0094 µM
COc1cccc2c1nc(N)n1nc(CN3CCN(Cc4ccc(C)cc4)C(=O)C3)nc21 [Ex-210] | 0.0077 µM
COc1cc(F)cc2c1nc(N)n1nc(CN3CCN(Cc4ccc(F)cc4)C(=O)C3)nc21 [Ex-211] | 0.0099 µM
